The source of these data is patent EP2060252A1, “New formulation of galactosylceramide derivatives” (Wittycell, priority 2007, dated 2009).

Data set [1] is described as follows: Mixed micelles with bile salts: macroscopic aspect after reconstitution. It counts as physicochemical. Conditions: for Aspect of the solution after reconstitution: PBS57 200 µg/mL; for Macroscopic observation right after reconstitution with 5% glucose: PBS57 50 µg/mL, ratio bile salt / PBS57 1/1. The method, then:
The mixed-micelle solution manufacturing process requires co-solubilization of the lipid and the bile salt into a solvent (ethanol) that is then evaporated before the final aqueous medium is added to obtain the mixed-micellar solution. A 5% glucose solution was used as the aqueous reconstitution medium here.
Both sodium taurocholate and deoxycholate were tested. A first indication that the mixed aggregates are truly formed is the clear aspect of the solution.
PBS57 concentration in the above 2 experiments was 50 µg/mL. The ratio bile salt / PBS57 was here 1/1.
Solutions of PBS57 at 200 µg/mL associated (equimolar ratio) to sodium taurocholate or sodium deoxycholate were manufactured by the same protocol.

A short description of data set [2]: Micelle to vesicle phase transition upon dilution: aspect. The class given is physicochemical. Conditions: mixed micellar solution from sodium taurocholate and PBS57 (50 µg/mL). As to the method:
It is well established that phospholipids/bile salt mixed aggregates are going through a phase transition to form vesicles (liposomes) once diluted.
The same experiment was carried out on a mixed micellar solution obtained from sodium taurocholate and PBS57 (50 µg/mL).

For data set [3] the following is noted: water.

Consider `CCCCCCCC/C=C\CCCCCCCCCCCCCC(=O)N[C@@H](CO[C@H]1O[C@H](CNC(C)=O)[C@H](O)[C@H](O)[C@H]1O)[C@H](O)[C@H](O)CCCCCCCCCCCCCC` [PBS57], for which the “Aspect of the solution after reconstitution” value in data set [1] (equimolar ratio to sodium deoxycholate) and in data set [1] (equimolar ratio to sodium taurocholate) was “perfectly clear” throughout. The “Macroscopic observation right after reconstitution with 5% glucose” value is on record as “Turbid with large aggregates, flocculation slowly turning to sedimentation” in data set [1] (excipient Deoxycholate) and “Slightly turbid” in data set [1] (excipient Taurocholate). In addition, the Aspect upon dilution result in data set [2] is “slightly turbid suspension”.
Turning to α-galactosylceramide [α-GC], in data set [3], the Thermodynamic aqueous solubility result is listed as “below 5 µg/mL”.
